Assay results: patent publication US20230263758A1, “COMPOSITIONS OF EDTA HAVING ACTIVITY AGAINST PLANKTONIC AND BIOFILM CELLS OF CLINICALLY RELEVANT PATHOGENS” (SterileCare Inc., priority 2022, published 2023)
Where a name gives a salt, the structure may show the parent alone.

What was measured:
[1] = test system: S. epidermidis SK9; test: Checkerboard, FMCI; format: cell-based, Staphylococcus epidermidis; settings: EDTA + chlorhexidine HCl
Method: (§1) An assay was made using a minimum inhibitory concentration (MIC) and minimum bactericidal concentration (MBC) and minimum fungicidal concentration (MFC) determination. The MIC was determined by the micro broth dilution method in 96-well plates. Serial two-fold dilutions of tetrasodium EDTA (from 2% to 0.015%), ethanol (from 50% to 0.1%) and chlorhexidine HCl (from 100 μg/mL to 0.025 μg/mL) were prepared in MH broth with a final volume of 90 μL per well. A 10 μL containing 1×10^5 bacterial cells or 2×10^3 fungal cells were added to each well. The inoculated plates were covered with a lid, sealed with Parafilm, and incubated for 24 h at 37° C. with slight rocking on a tilting platform shaker. After incubation, the optical density at 600 nm (OD 600) of the cultures in each well was measured using an xMark™ Microplate Absorbance Spectrophotometer (Bio-Rad). […] MBCs and MFCs were determined by transferring 100 μL from each well with no apparent growth onto appropriate agar plates, followed by incubation for 24 h at 37° C.
(§2) A fourth composition and solution included tetrasodium EDTA with ethanol or chlorhexidine HCl. […] The concentrations of antimicrobials used were based on previously determined MIC values. […] Microtiter plates were incubated at 37° C. for 24 h, and the results were analyzed. […]

[2] = test system: Pseudomonas aeruginosa SK1; test: Checkerboard FBEC index, 48-h biofilm; format: cell-based; settings: P. aeruginosa SK1 biofilm; EDTA + chlorhexidine HCl
Method: (§4) In step (4), microtiter plates are incubated at 37° C. for 24 h. then (6), after incubation, the bacterial and fungal cells were dislodged from the pegs into the recovery medium described above.
(§5) Three 10-μL aliquots, for a total of 30 μL from each well of recovery medium, were spotted on MH agar plates and incubated for 24 h at 37° C. […] The FBEC determination is a modification of the FICI.

[3] = test system: E. coli SK2; test: Checkerboard titration, FICI; format: cell-based, Escherichia coli
Method: (§3) A fourth composition and solution included tetrasodium EDTA with ethanol or chlorhexidine HCl. This fourth composition and solution were created using checkerboard titration methods using micro broth dilution in 96-well microtiter plates. The concentrations of antimicrobials used were based on previously determined MIC values. Briefly, 200 μL of two-fold dilutions of tetrasodium EDTA and ethanol or chlorhexidine HCl were prepared in MH or MH II broth with standardized cell suspension. […] Microtiter plates were incubated at 37° C. for 24 h, and the results were analyzed. Each test was performed in duplicate and included a growth control without adding any antimicrobials.

[4] = test system: Escherichia coli SK2; test: Checkerboard FBEC index, 48-h biofilm; format: cell-based; settings: E. coli SK2 biofilm; EDTA + chlorhexidine HCl
Method: as §4, §5

[5] = test system: S. epidermidis SK9; test: Checkerboard titration, FICI; format: cell-based, Staphylococcus epidermidis
Method: as §3

[6] = test system: C. albicans ON47; test: Checkerboard, FMCI; format: cell-based, Candida albicans; settings: EDTA + chlorhexidine HCl
Method: as §1, §2

[7] = test system: Candida albicans SK4b; test: Checkerboard titration, FICI; format: cell-based; settings: C. albicans SK4b
Method: as §3

[8] = test system: Stenotrophomonas maltophilia ON17; test: Checkerboard titration, FICI; format: cell-based; settings: S. maltophilia ON17
Method: as §3

[9] = test system: Staphylococcus epidermidis ON170; test: Checkerboard titration, FICI; format: cell-based; settings: S. epidermidis ON170
Method: as §3

[10] = test system: Proteus mirabilis ON153; test: Checkerboard titration, FICI; format: cell-based; settings: P. mirabilis ON153
Method: as §3

[11] = test system: Serratia marcescens SK2; test: Checkerboard titration, FICI; format: cell-based; settings: S. marcescens SK2
Method: as §3

[12] = test system: Staphylococcus aureus ON89; test: Checkerboard titration, FICI; format: cell-based; settings: S. aureus ON89
Method: as §3

[13] = test system: Pseudomonas aeruginosa SK1; test: Checkerboard titration, FICI; format: cell-based; settings: P. aeruginosa SK1
Method: as §3

[14] = test system: Escherichia coli ON29; test: Checkerboard titration, FICI; format: cell-based; settings: E. coli ON29
Method: as §3

[15] = test system: C. albicans ON47; test: Checkerboard titration, FICI; format: cell-based, Candida albicans
Method: as §3

[16] = test system: E. coli SK2; test: Checkerboard, FMCI; format: cell-based, Escherichia coli; settings: EDTA + chlorhexidine HCl
Method: as §1, §2

[17] = test system: Staphylococcus epidermidis SK9; test: Checkerboard FBEC index, 48-h biofilm; format: cell-based; settings: S. epidermidis SK9 biofilm
Method: as §4, §5

[18] = test system: 48-h-old biofilms of bacterial and fungal strains; test: MBEC assay, summary, 24 h exposure of 48-h-old biofilms; format: cell-based
Method: A biofilm cultivation cell composition was provided. This fifth composition was created using an MBEC Assay® biofilm inoculator, consisting of a polystyrene lid with 96 downward-protruding pegs and a corresponding base used to grow biofilms. A standardized inoculum was diluted in an appropriate biofilm growth medium to achieve a viable cell count of 1.5×10^6 CFU/mL of bacterial cells or 5×10^5 CFU/mL of fungal cells. Then, 150 μL of this inoculum was transferred into each appropriate well, and the peg lids were inserted into the microtiter plates. The plates were sealed with Parafilm and were incubated at optimum temperature for 48 h with slight rocking for bacteria and shaking at 200 rpm for fungal strains. After incubation, the peg lid was removed from the base and rinsed twice with sterile phosphate-buffered saline (PBS) for 2 min to remove loosely attached non-sessile cells. Before the antimicrobial challenge, the pegs in column 1 (n=8) were considered the biofilm growth control; these pegs were removed from the lids, placed into 200 μL of recovery medium, and analyzed for starting biofilm cell numbers as described below. […] After the antimicrobial challenge, the pegs were rinsed twice with sterile PBS for 2 min and placed into a new 96-well plate containing 200 μL of recovery medium. The recovery plates were sealed with Parafilm, and biofilm cells were dislodged from the pegs by sonication for 30 min with a Branson 3510 bath sonicator. The biofilm cells in the recovery medium were serially diluted, and a drop dilution assay was performed to enumerate the viable cells. MBEC values were determined as the minimum concentration of antimicrobials that yielded a viable cell count at or lower than the 125 CFU/mL detection limit.

[19] = EDTA + chlorhexidine HCl checkerboard

| Structure (SMILES) | Microbicidal concentration in combination [1] | Biofilm eradication concentration in combination (FBEC) [2] | Inhibitory concentration in combination [3, 19] | Biofilm eradication concentration in combination (FBEC) [4] | Inhibitory concentration in combination [5, 19] | Microbicidal concentration in combination [6] | Inhibitory concentration in combination [7, 19] | Inhibitory concentration in combination [8, 19] | Inhibitory concentration in combination [9, 19] | Inhibitory concentration in combination [10, 19] | Inhibitory concentration in combination [11, 19] | Inhibitory concentration in combination [12, 19] | Inhibitory concentration in combination [13, 19] | Inhibitory concentration in combination [14, 19] | Inhibitory concentration in combination [15, 19] | Microbicidal concentration in combination [16] | Concentration alone able to eradicate all established biofilms following 24 h of treatment [18] | further results |
| --- | --- | --- | --- | --- | --- | --- | --- | --- | --- | --- | --- | --- | --- | --- | --- | --- | --- | --- |
| [H]/N=C(\N/C(=N/[H])NCCCCCCNC(=N)NC(=N)Nc1ccc(Cl)cc1)Nc1ccc(Cl)cc1 [Chlorhexidine HCl, chlorhexidine HCl, reference compound] | 0.4 µg/mL | 3.125 µg/mL | 0.1 µg/mL | 3.125 µg/mL | 0.025 µg/mL | 1.6 µg/mL | 0.8 µg/mL | 0.2 µg/mL | 0.05 µg/mL | 0.8 µg/mL | 1.5 µg/mL | 0.1 µg/mL | 0.8 µg/mL | 0.2 µg/mL | 0.8 µg/mL | 0.2 µg/mL | 100 µg/mL | Biofilm eradication concentration in combination (FBEC) ([17]; EDTA + chlorhexidine HCl): 3.125 µg/mL |
| O=C([O-])CN(CCN(CC(=O)[O-])CC(=O)[O-])CC(=O)[O-].[Na+].[Na+].[Na+].[Na+] [EDTA, tetrasodium EDTA] | 0.008 % w/v | 0.25 % w/v | 0.008 % w/v | 0.031 % w/v | 0.015 % w/v | 0.031 % w/v | 0.063 % w/v | 0.015 % w/v | 0.063 % w/v | 0.063 % w/v | 0.063 % w/v | 0.008 % w/v | 0.5 % w/v | 0.008 % w/v | 0.125 % w/v | 0.015 % w/v | 4% | Inhibitory concentration in combination ([3]; EDTA + ethanol checkerboard): 0.015 % w/v; Inhibitory concentration in combination ([5]; EDTA + ethanol checkerboard): 0.015 % w/v; Inhibitory concentration in combination ([7]; EDTA + ethanol checkerboard): 0.25 % w/v; Inhibitory concentration in combination ([8]; EDTA + ethanol checkerboard): 0.031 % w/v; Inhibitory concentration in combination ([9]; EDTA + ethanol checkerboard): 0.015 % w/v; Inhibitory concentration in combination ([10]; EDTA + ethanol checkerboard): 0.5 % w/v; Inhibitory concentration in combination ([11]; EDTA + ethanol checkerboard): 0.5 % w/v; Inhibitory concentration in combination ([12]; EDTA + ethanol checkerboard): 0.015 % w/v; Inhibitory concentration in combination ([13]; EDTA + ethanol checkerboard): 0.031 % w/v; Inhibitory concentration in combination ([14]; EDTA + ethanol checkerboard): 0.25 % w/v; Inhibitory concentration in combination ([15]; EDTA + ethanol checkerboard): 0.25 % w/v; Biofilm eradication concentration in combination (FBEC) ([17]; EDTA + ethanol): 0.031 % w/v |
